Here are results for 1 substance from patent US20050064442A1, “Methods for identifying risk of breast cancer and treatments thereof” (priority 2002, published 2005).

This test deals with cell lines where RAD21 expression is inhibited using siRNA. Kind of test: Clonogenic survival assay. It is filed as cell-based.

Description: Clonogenic survival assays measure survival of cells after treatment with cytotoxic agents. In this particular assay the aim is to investigate the effect of downregulating RAD21 expression on sensitivity to therapeutically relevant DNA damaging agent.
Cells were transfected with siRNA against RAD21, siRAD21—272, to reduce expression of RAD21. […] Cells were then trypsinized and replated at 200 cells per plate. Cells were grown for 11-12 days, fixed and stained with crystal violet to detect colonies. Colonies were then counted.
The data were fitted to a curve and the DRF values calculated from the fitted curves of siRAD21 and Lipofectamine.

For bleomycin, the “sensitivity to drug in clonogenic survival” value (cell lines where RAD21 expression is inhibited using siRNA, FIGS. 9 and 10) was “increased sensitivity”. The “DRF20 (factor by which the dose can be reduced in the presence of decreased RAD21 expression)” value (cells transfected with siRAD21—272, drug exposure 2 hours, two days after transfection, colonies counted after 11-12 days, from fitted curves of siRAD21 and Lipofectamine) is 1.15.
